Patent publication US7179825B2, “Retinoic acid mimetic anilides” (Janssen Pharmaceutica N.V., priority 1997, dated 2007)

What follows are compounds tested on metabolism of retinoic acid in human breast cancer cells (assay: Inhibition of retinoic acid (RA) metabolism (Example C.1)). Settings: MCF-7 human breast cancer cells, 3H-RA as substrate; concentration needed to reduce the amount of metabolites to 50% of the control.
Type: cell-based
Procedure, shortened: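 Test compound (in 1% DMSO) added at several concentrations to MCF-7 cell suspensions fed ³H-RA, after RA induction of metabolism one day earlier. Scintillation counting of the separated polar metabolite fraction; IC50 = concentration giving 50% of control metabolite level.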

| Structure (SMILES) | IC50 [nM] |
| --- | --- |
| CC(C)C(c1ccc(NC(=O)C(=Cc2ccccc2)C2CCCC2)cc1)n1ccnc1 (racemic) [Compound 472] | 95.1 |
| CC(O)C(=O)Nc1ccc(C(C(C)C)n2ccnc2)cc1 (centres unmarked) [Compound 249] | 75.8 |
| COC(C(=O)Nc1ccc(C(C(C)C)n2ccnc2)cc1)c1ccccc1 (mixture of isomers) [Compound 670] | 5.72 |
| C/C(=C\c1ccccc1)C(=O)Nc1ccc(C(C2CC2)n2ccnc2)cc1 (racemic) [Compound 469] | > 100 |
| CC(C)C(c1ccc(NC(=O)/C=C/c2ccccc2)cc1)n1cncn1 (racemic) [Compound 155] | 50.1 |
| CC(C)C(c1ccc(NC(=O)Nc2cccnc2)cc1)n1ccnc1 (racemic) [Compound 270] | 5.61 |
| CC(C)C(c1ccc(NC(=O)C(F)=Cc2ccccc2)cc1)n1ccnc1 (racemic) [Compound 461] | 16.9 |
| CCC(CC)C(c1ccc(NC(=O)Cc2cc(C)ccc2OC)cc1)n1ccnc1 (racemic) [Compound 122] | 2.4 |
| C/C(=C\c1ccccc1)C(=O)Nc1ccc(C(C2COCOC2)n2ccnc2)cc1 (racemic) [Compound 477] | > 1000 |
| CC(C)C(c1ccc(NC(=O)C2CCCO2)cc1)n1ccnc1 (racemic) [Compound 181] | 14.1 |
| Cc1ccccc1C(=Cc1ccccc1)C(=O)Nc1ccc(C(C(C)C)n2ccnc2)cc1 (racemic) [Compound 456] | 140 |
| O=C(/C=C/c1ccccc1)Nc1ccc(C(c2ccccc2)n2ccnc2)cc1 (racemic) [Compound 497] | 37.6 |
| CC(C)CC(c1ccc(NC(=O)Cc2ccc(Cl)cc2)cc1)n1ccnc1 (racemic) [Compound 359] | 6.25 |
| C/C(=C\c1ccnc2ccccc12)C(=O)Nc1ccc(C(C(C)C)n2ccnc2)cc1 (racemic) [Compound 592] | 4.15 |
| C/C(=C\c1ccccc1)C(=O)Nc1ccc(C(CCC(C)C)n2ccnc2)cc1 (centres unmarked) [Compound 475] | > 100 |
| O=C(Nc1ccc(C(c2ccccc2)n2ccnc2)cc1)c1cnccn1 (racemic) [Compound 424] | > 100 |
| CC(c1ccc(NC(=O)Cc2ccc(Cl)cc2)cc1)n1ccnc1 (racemic) [Compound 358] | > 100 |
| CCC(CC)C(c1ccc(NC(=O)c2nc3ccccc3s2)cc1)n1ccnc1.O=C(O)C(=O)O (centres unmarked) [Compound 778] | 75.9 |
| CC(C)C(c1ccc(NC(=O)CNC(=O)OCc2ccccc2)cc1)n1ccnc1 (racemic) [Compound 262] | 7.48 |
| CC(C)C(c1ccc(NC(=O)Cc2cccnc2)cc1)n1ccnc1 (centres unmarked) [Compound 251] | 3.93 |
| CC(C)C(c1ccc(NC(=O)C(=Cc2ccccc2)c2ccccc2)cc1)n1ccnc1 (centres unmarked) [Compound 454] | 52.5 |
| C/C(=C\c1ccccc1)C(=O)Nc1ccc(C(C)n2ccnc2)cc1 (racemic) [Compound 466] | > 1000 |
| CCC(CC)C(c1ccc(NC(=O)C2=Cc3ccccc3OC2)cc1)n1ccnc1 (racemic) [Compound 31] | 2.63 |
| C/C(=C\c1ccccc1)C(=O)Nc1ccc(C(C(c2ccccc2)c2ccccc2)n2ccnc2)cc1 (racemic) [Compound 485] | > 100 |
| CC(=Cc1ccccc1)C(=O)Nc1ccc(C(c2ccccc2)n2ccnc2)cc1 (racemic) [Compound 445] | 192 |
| COc1ccc(NC(=O)Nc2ccc(C(C(C)C)n3ccnc3)cc2)cc1 (racemic) [Compound 722] | 4.14 |
| CC(C)NC(=O)Nc1ccc(C(C(C)C)n2ccnc2)cc1 (racemic) [Compound 268] | 7.79 |

Compounds with a lower IC50, results first:

| IC50 [nM] | Structure (SMILES) |
| --- | --- |
| 1.72 | CCC(CC)C(c1ccc(NC(=O)Cc2ccc(F)cc2)cc1)n1cncn1 (racemic) [Compound 68] |
| 2.07 | CC(C)C(c1ccc(NC(=O)CNc2ccccc2)cc1)n1ccnc1 (racemic) [Compound 213] |
| 1.17 | CC(C)C(c1ccc(NC(=O)Nc2nc3ccccc3n2C)cc1)n1ccnc1 (racemic) [Compound 277] |
| 0.188 | CCC(CC)C(c1ccc(NC(=O)Nc2cc(F)ccc2F)cc1)n1ccnc1 (racemic) [Compound 710] |
| 0.0937 | CCC(CC)C(c1ccc(NC(=O)CCCc2ccc(OC)c(OC)c2)cc1)n1cncn1 (centres unmarked) [Compound 8] |
| 1.59 | CCCOc1ccc(CC(=O)Nc2ccc(C(C(CC)CC)n3ccnc3)cc2)cc1 (racemic) [Compound 93] |
| 1.26 | CCC(CC)C(c1ccc(NC(=O)Cc2ccc(C)c(OC)c2)cc1)n1cncn1 (single isomer, unassigned) [Compound 782] |
| 0.0251 | CCC(CC)C(c1ccc(NC(=O)C(O)c2ccc(OC)c(OC)c2)cc1)n1ccnc1 (centres unmarked) [Compound 56] |
| 1.79 | CC(C)C(c1ccc(NC(=O)C2Oc3ccccc3O2)cc1)n1ccnc1 (centres unmarked) [Compound 248] |
| 1.51 | CC(C)C(c1ccc(NC(=O)c2ccc3c(c2)OCO3)cc1)n1ccnc1 (racemic) [Compound 232] |
| 0.0342 | CCC(CC)C(c1ccc(NC(=O)Cc2ccc(O)c(Cl)c2)cc1)n1cncn1 (racemic) [Compound 79] |
| 0.131 | CCC(CC)C(c1ccc(NC(=O)Cc2ccccc2OC)cc1)n1ccnc1 (racemic) [Compound 89] |
| 0.0483 | CCC(CC)C(c1ccc(NC(=O)Cc2cc(OC)c(OC)c(OC)c2)cc1)n1cncn1 (racemic) [Compound 80] |
| 0.227 | CCC(CC)C(c1ccc(NC(=O)Cc2ccc(OC)c(C)c2)cc1)n1cncn1 (racemic) [Compound 78] |
| 1.87 | CC(C)C(c1ccc(NC(=O)C2Oc3ccccc3O2)cc1)n1cncn1 (centres unmarked) [Compound 161] |
| 1.97 | CCC(c1ccc(NC(=O)Cc2ccc(Cl)cc2)cc1)n1ccnc1 (centres unmarked) [Compound 372] |
| 0.201 | CCC(CC)C(c1ccc(NC(=O)CC2COc3ccccc3O2)cc1)n1ccnc1 (mixture of isomers) [Compound 26] |
| 1.38 | CCC(CC)C(c1ccc(NC(=O)Nc2ccccc2F)cc1)n1ccnc1 (racemic) [Compound 713] |
| 1.42 | CCCC(c1ccc(NC(=O)Cc2ccc(Cl)cc2)cc1)n1ccnc1 (centres unmarked) [Compound 363] |
| 1.58 | COc1ccc(/C=C(\C)C(=O)Nc2ccc(C(C(C)C)n3ccnc3)cc2)cc1 (racemic) [Compound 582] |
| 0.417 | CCOc1ccc(CC(=O)Nc2ccc(C(C(CC)CC)n3cncn3)cc2)cc1Cl (racemic) [Compound 75] |
| 1.95 | CCOc1ccc(CC(=O)Nc2ccc(C(C(C)C)n3ccnc3)cc2)cc1 (racemic) [Compound 663] |

These compounds were tested on Ovariectomized rats (assay: Vaginal keratinization test on ovariectomized rats (Example C.2)). Settings: estradiol undecylate induced keratinization, per os once daily on days 1-3, active dose = 50% of rats show complete suppression.
Type: in vivo
Procedure, shortened: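 Value is the lowest oral dose (mg/kg) at which half of tested rats show complete suppression of estradiol undecylate-induced vaginal keratinization by histology. Ovariectomized rats received 100 μg/100 g estradiol undecylate s.c., then compound or PEG 200 vehicle p.o. daily for three days; sacrifice one day later.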

| Structure (SMILES) | LAD (lowest active dose) [mg/kg] |
| --- | --- |
| CC(C)C(c1ccc(NC(=O)C(=Cc2ccccc2)C2CCCC2)cc1)n1ccnc1 (racemic) [Compound 472] | >20.00 |
| CCC(CC)C(c1ccc(NC(=O)Cc2ccc(F)cc2)cc1)n1cncn1 (racemic) [Compound 68] | 5.00 |
| CC(O)C(=O)Nc1ccc(C(C(C)C)n2ccnc2)cc1 (centres unmarked) [Compound 249] | 5.00 |
| CC(C)C(c1ccc(NC(=O)CNc2ccccc2)cc1)n1ccnc1 (racemic) [Compound 213] | 20.00 |
| CC(C)C(c1ccc(NC(=O)Nc2nc3ccccc3n2C)cc1)n1ccnc1 (racemic) [Compound 277] | >5.00 |
| COC(C(=O)Nc1ccc(C(C(C)C)n2ccnc2)cc1)c1ccccc1 (mixture of isomers) [Compound 670] | >2.50 |
| C/C(=C\c1ccccc1)C(=O)Nc1ccc(C(C2CC2)n2ccnc2)cc1 (racemic) [Compound 469] | >10.00 |
| CC(C)C(c1ccc(NC(=O)/C=C/c2ccccc2)cc1)n1cncn1 (racemic) [Compound 155] | >10.00 |
| CC(C)C(c1ccc(NC(=O)Nc2cccnc2)cc1)n1ccnc1 (racemic) [Compound 270] | >10.00 |
| CCC(CC)C(c1ccc(NC(=O)Nc2cc(F)ccc2F)cc1)n1ccnc1 (racemic) [Compound 710] | 2.50 |
| CCC(CC)C(c1ccc(NC(=O)CCCc2ccc(OC)c(OC)c2)cc1)n1cncn1 (centres unmarked) [Compound 8] | >2.50 |
| CCCOc1ccc(CC(=O)Nc2ccc(C(C(CC)CC)n3ccnc3)cc2)cc1 (racemic) [Compound 93] | 2.50 |
| CCC(CC)C(c1ccc(NC(=O)Cc2ccc(C)c(OC)c2)cc1)n1cncn1 (single isomer, unassigned) [Compound 782] | 2.50 |
| CCC(CC)C(c1ccc(NC(=O)C(O)c2ccc(OC)c(OC)c2)cc1)n1ccnc1 (centres unmarked) [Compound 56] | >5.00 |
| CC(C)C(c1ccc(NC(=O)C2Oc3ccccc3O2)cc1)n1ccnc1 (centres unmarked) [Compound 248] | 2.50 |
| CC(C)C(c1ccc(NC(=O)C(F)=Cc2ccccc2)cc1)n1ccnc1 (racemic) [Compound 461] | 10.00 |
| CCC(CC)C(c1ccc(NC(=O)Cc2cc(C)ccc2OC)cc1)n1ccnc1 (racemic) [Compound 122] | >2.50 |
| C/C(=C\c1ccccc1)C(=O)Nc1ccc(C(C2COCOC2)n2ccnc2)cc1 (racemic) [Compound 477] | >10.00 |
| CC(C)C(c1ccc(NC(=O)C2CCCO2)cc1)n1ccnc1 (racemic) [Compound 181] | 10.00 |
| Cc1ccccc1C(=Cc1ccccc1)C(=O)Nc1ccc(C(C(C)C)n2ccnc2)cc1 (racemic) [Compound 456] | >20.00 |
| CC(C)C(c1ccc(NC(=O)c2ccc3c(c2)OCO3)cc1)n1ccnc1 (racemic) [Compound 232] | >10.00 |
| O=C(/C=C/c1ccccc1)Nc1ccc(C(c2ccccc2)n2ccnc2)cc1 (racemic) [Compound 497] | >20.00 |
| CCC(CC)C(c1ccc(NC(=O)Cc2ccc(O)c(Cl)c2)cc1)n1cncn1 (racemic) [Compound 79] | 2.50 |
| CC(C)CC(c1ccc(NC(=O)Cc2ccc(Cl)cc2)cc1)n1ccnc1 (racemic) [Compound 359] | >10.00 |
| CCC(CC)C(c1ccc(NC(=O)Cc2ccccc2OC)cc1)n1ccnc1 (racemic) [Compound 89] | 2.50 |

| Structure (SMILES) | LAD (lowest active dose) [mg/kg] |
| --- | --- |
| CCC(CC)C(c1ccc(NC(=O)Cc2cc(OC)c(OC)c(OC)c2)cc1)n1cncn1 (racemic) [Compound 80] | >2.50 |
| C/C(=C\c1ccnc2ccccc12)C(=O)Nc1ccc(C(C(C)C)n2ccnc2)cc1 (racemic) [Compound 592] | >10.00 |
| C/C(=C\c1ccccc1)C(=O)Nc1ccc(C(CCC(C)C)n2ccnc2)cc1 (centres unmarked) [Compound 475] | >10.00 |
| O=C(Nc1ccc(C(c2ccccc2)n2ccnc2)cc1)c1cnccn1 (racemic) [Compound 424] | >10.00 |
| CC(c1ccc(NC(=O)Cc2ccc(Cl)cc2)cc1)n1ccnc1 (racemic) [Compound 358] | >10.00 |
| CCC(CC)C(c1ccc(NC(=O)c2nc3ccccc3s2)cc1)n1ccnc1.O=C(O)C(=O)O (centres unmarked) [Compound 778] | 5.00 |
| CCC(CC)C(c1ccc(NC(=O)Cc2ccc(OC)c(C)c2)cc1)n1cncn1 (racemic) [Compound 78] | 1.25 |
| CC(C)C(c1ccc(NC(=O)CNC(=O)OCc2ccccc2)cc1)n1ccnc1 (racemic) [Compound 262] | 20.00 |
| CC(C)C(c1ccc(NC(=O)Cc2cccnc2)cc1)n1ccnc1 (centres unmarked) [Compound 251] | 10.00 |
| CC(C)C(c1ccc(NC(=O)C2Oc3ccccc3O2)cc1)n1cncn1 (centres unmarked) [Compound 161] | >2.50 |
| CC(C)C(c1ccc(NC(=O)C(=Cc2ccccc2)c2ccccc2)cc1)n1ccnc1 (centres unmarked) [Compound 454] | >20.00 |
| CCC(c1ccc(NC(=O)Cc2ccc(Cl)cc2)cc1)n1ccnc1 (centres unmarked) [Compound 372] | 5.00 |
| CCC(CC)C(c1ccc(NC(=O)CC2COc3ccccc3O2)cc1)n1ccnc1 (mixture of isomers) [Compound 26] | 5.00 |
| CCC(CC)C(c1ccc(NC(=O)Nc2ccccc2F)cc1)n1ccnc1 (racemic) [Compound 713] | 2.50 |
| CCCC(c1ccc(NC(=O)Cc2ccc(Cl)cc2)cc1)n1ccnc1 (centres unmarked) [Compound 363] | >10.00 |
| C/C(=C\c1ccccc1)C(=O)Nc1ccc(C(C)n2ccnc2)cc1 (racemic) [Compound 466] | >20.00 |
| CCC(CC)C(c1ccc(NC(=O)C2=Cc3ccccc3OC2)cc1)n1ccnc1 (racemic) [Compound 31] | 5.00 |
| COc1ccc(/C=C(\C)C(=O)Nc2ccc(C(C(C)C)n3ccnc3)cc2)cc1 (racemic) [Compound 582] | >10.00 |
| C/C(=C\c1ccccc1)C(=O)Nc1ccc(C(C(c2ccccc2)c2ccccc2)n2ccnc2)cc1 (racemic) [Compound 485] | 5.00 |
| CCOc1ccc(CC(=O)Nc2ccc(C(C(CC)CC)n3cncn3)cc2)cc1Cl (racemic) [Compound 75] | 2.50 |
| CC(=Cc1ccccc1)C(=O)Nc1ccc(C(c2ccccc2)n2ccnc2)cc1 (racemic) [Compound 445] | >20.00 |
| CCOc1ccc(CC(=O)Nc2ccc(C(C(C)C)n3ccnc3)cc2)cc1 (racemic) [Compound 663] | 2.50 |
| COc1ccc(NC(=O)Nc2ccc(C(C(C)C)n3ccnc3)cc2)cc1 (racemic) [Compound 722] | 5.00 |
| CC(C)NC(=O)Nc1ccc(C(C(C)C)n2ccnc2)cc1 (racemic) [Compound 268] | >10.00 |
